Reference: US9567325B2, “Carboxamide compounds and their use as calpain inhibitors” (AbbVie Deutschland GmbH & Co. KG, priority 2009, dated 2017)

Assays:
Format in all cases: biochemical
[1] = target: T1, cathepsin K activated from recombinant human procathepsin K (Homo sapiens, UniProt P43235); assay: Cathepsin K enzyme inhibition in vitro, kinetic fluorescence assay (selectivity vs calpain); settings: ratio of Ki values; Z-Gly-Pro-Arg-AMC substrate, pH 6.0
T1 construct: purchased Calbiochem 342001; host or cells: E. coli
T1 sequence (P43235 115-329): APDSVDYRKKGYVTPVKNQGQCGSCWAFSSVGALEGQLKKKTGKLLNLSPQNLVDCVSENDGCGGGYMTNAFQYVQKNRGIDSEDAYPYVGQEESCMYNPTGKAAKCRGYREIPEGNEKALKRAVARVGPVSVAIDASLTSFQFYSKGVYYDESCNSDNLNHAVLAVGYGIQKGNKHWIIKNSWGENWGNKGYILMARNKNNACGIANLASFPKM
Experimental: (§1) The following solutions and buffers were employed: • HBS (for 40 ml): 800 μl 1M HEPES; 2.16 ml 100 mM KCl; 4.8 ml 1M NaCl; 3.59 ml 5% glucose; 60 μl 1M MgSO4; 400 μl 100 mM Na pyruvate, 28.19 ml water; pH 7.2-7.5. • lysis buffer (for 20 ml): 400 μl 1M Tris pH 8.2; 2.74 ml 1M NaCl; 520 μl 0.5M EDTA; 2 ml 10% triton X-100; 0.8 ml (=1:25) CompletePlus (1 tablet/2 ml H2O); 200 μl 100 mM Pefabloc; 13.34 ml water, pH 8.2. • TBST (10×) (for 11): 100 mM Tris (12.1 g); 1.5M NaCl (87 g); 1% Tween 20 (10 g), adjusted to pH 8. I Enzyme Inhibition In Vitro: • Testing for blockade of the corresponding enzymic activities was carried out by means of kinetic fluorescence assays (excitation 390 nm, emission 460 nm). • Apparent Ki values were calculated from the experimentally determined IC50 values by the Cheng-Prussoff relation assuming a reversible competitive enzyme inhibition. The Km values of the substrates used under the assay conditions indicated above were: 90 μM (Z-Phe-Arg-AMC, cathepsin B), 10 μM (Z-Gly-Pro-Arg-AMC, cathepsin K), 2 μM (Z-Phe-Arg-AMC, cathepsin L), and 30 μM (Z-Val-Val-Arg-AMC, cathepsin S). • The indicated Ki values are averages of the inhibition constants calculated on the basis of 2 to 4 independent dose-effect plots. • The following assays were used: • 1. Calpain I: • 20 nM calpain-1-isolated from human erythrocytes (Calbiochem #208713), 100 μM Suc-Leu-Tyr-AMC (Bachem #1-1355) as substrate in buffer with 62 mM imidazole, 0.3 mM CaCl2, 0.10% CHAPS, 0.05% BSA, 1 mM DTT at pH 7.3 and room temperature. • 2. Cathepsin B: • 0.25 nM cathepsin B—isolated from human liver (Calbiochem #219362), 100 μM Z-Phe-Arg-AMC (Bachem #1-1160) as substrate 50 mM MES, 2 mM EDTA, 0.05% Brij 35, 2.5 mM L-cysteine, pH 6.0, room temperature. • 3. Cathepsin K: • 3 nM cathepsin K-activated from recombinant human procathepsin K from E. coli (Calbiochem #342001), 10 μM Z-Gly-Pro-Arg-AMC (Biomol #P-142) as substrate in 50 mM MES, 2 mM EDTA, 0.05% Brij 35, 2.5 mM L-cysteine, pH 6.0, room temperature. • 4. Cathepsin L: • 1 nM cathepsin L—isolated from human liver (Calbiochem #219402), 2 μM Z-Phe-Arg-AMC (Bachem #1-1160) as substrate in 50 mM MES, 2 mM EDTA, 0.05% Brij 35, 2.5 mM L-cysteine, pH 6.0, room temperature. • 5. Cathepsin S: • 0.5 nM recombinant human cathepsin S from E. coli (Calbiochem #219343), 20 μM Z-Val-Val-Arg-AMC (Bachem #I-1540) as substrate in 50 mM MES, 2 mM EDTA, 0.05% Brij 35, 2.5 mM L-cysteine, pH 6.0, room temperature. • The results of the in vitro determination are indicated in Table 1. The following abbreviations are used in Table 1: • In the “Calpain activity” column, +++ stands for a calpain Ki (Ki(calpain)) of ≦40 nM, and ++ means: 40 nM<Ki(Calpain)≦100 nM and + means 100 nM<Ki(Calpain)≦300 nM. • The “Sel. cat. B” column indicates the Ki(cathepsin B)/Ki(calpain) ratio. In this connection, ++ means a Ki(cathepsin B)/Ki(calpain) ratio of ≧30 and + means 10≦Ki(cathepsin B)/Ki(calpain)<30. • The “Sel. cat. K” column indicates the Ki(cathepsin K)/Ki(calpain) ratio. In this connection, ++ means a Ki(cathepsin K)/Ki(calpain) ratio of ≧30 and + means 10≦Ki(cathepsin K)/Ki(calpain)<30. • The “Sel. cat. L” column indicates the Ki(cathepsin L)/Ki(calpain) ratio. In this connection, ++ means a Ki(cathepsin L)/Ki(calpain) ratio of ≧50 and + means 30≦Ki(cathepsin L)/Ki(calpain)<50. • The “Sel. cat. S” column indicates the Ki(cathepsin S)/Ki(calpain) ratio. In this connection, ++ means a Ki(cathepsin S)/Ki(calpain) ratio of ≧100 and + means 50≦Ki(cathepsin S)/Ki(calpain)<100.

[2] = target: T2, calpain-1 isolated from human erythrocytes (Homo sapiens, UniProt P07384); assay: Calpain I enzyme inhibition in vitro, kinetic fluorescence assay; settings: apparent Ki calculated from IC50 by Cheng-Prussoff; 100 μM Suc-Leu-Tyr-AMC, pH 7.3, room temperature
T2 construct: 20 nM calpain-1-isolated from human erythrocytes (Calbiochem #208713); purchased Calbiochem 208713; host or cells: human erythrocytes (natural source)
T2 sequence (P07384 1-714): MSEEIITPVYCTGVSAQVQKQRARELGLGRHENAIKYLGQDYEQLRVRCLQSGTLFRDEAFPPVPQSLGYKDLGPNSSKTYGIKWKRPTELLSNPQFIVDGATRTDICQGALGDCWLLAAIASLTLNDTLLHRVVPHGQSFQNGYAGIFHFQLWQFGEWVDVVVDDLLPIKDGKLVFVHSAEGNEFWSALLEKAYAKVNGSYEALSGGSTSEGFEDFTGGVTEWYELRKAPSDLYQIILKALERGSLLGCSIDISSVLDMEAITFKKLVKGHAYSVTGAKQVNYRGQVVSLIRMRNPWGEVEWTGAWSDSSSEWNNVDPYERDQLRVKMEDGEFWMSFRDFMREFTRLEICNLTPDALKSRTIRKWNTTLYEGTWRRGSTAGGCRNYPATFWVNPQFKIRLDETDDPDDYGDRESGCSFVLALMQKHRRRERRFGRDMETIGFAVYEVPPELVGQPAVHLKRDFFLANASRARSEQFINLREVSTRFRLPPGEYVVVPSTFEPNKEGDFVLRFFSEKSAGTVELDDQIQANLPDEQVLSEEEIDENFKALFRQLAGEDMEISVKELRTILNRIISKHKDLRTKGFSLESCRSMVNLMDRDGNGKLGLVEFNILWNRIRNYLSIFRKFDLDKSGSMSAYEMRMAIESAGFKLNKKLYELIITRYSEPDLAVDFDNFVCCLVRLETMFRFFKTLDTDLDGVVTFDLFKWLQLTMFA
T2 sequence (P04632 1-268 partner): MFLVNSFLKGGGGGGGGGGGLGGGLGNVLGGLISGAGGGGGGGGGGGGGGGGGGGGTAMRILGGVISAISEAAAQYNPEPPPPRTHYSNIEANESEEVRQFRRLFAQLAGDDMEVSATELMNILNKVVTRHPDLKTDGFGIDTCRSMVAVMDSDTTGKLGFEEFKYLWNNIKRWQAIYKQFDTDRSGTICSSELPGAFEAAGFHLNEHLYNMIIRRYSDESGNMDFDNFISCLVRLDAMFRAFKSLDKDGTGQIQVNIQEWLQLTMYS
Experimental: as §1

[3] = target: T3, cathepsin L isolated from human liver (Homo sapiens, UniProt P07711); assay: Cathepsin L enzyme inhibition in vitro, kinetic fluorescence assay (selectivity vs calpain); settings: ratio of Ki values; Z-Phe-Arg-AMC substrate, pH 6.0
T3 construct: 1 nM cathepsin L—isolated from human liver (Calbiochem #219402); purchased Calbiochem 219402; host or cells: human liver (natural source)
T3 sequence (P07711 114-333): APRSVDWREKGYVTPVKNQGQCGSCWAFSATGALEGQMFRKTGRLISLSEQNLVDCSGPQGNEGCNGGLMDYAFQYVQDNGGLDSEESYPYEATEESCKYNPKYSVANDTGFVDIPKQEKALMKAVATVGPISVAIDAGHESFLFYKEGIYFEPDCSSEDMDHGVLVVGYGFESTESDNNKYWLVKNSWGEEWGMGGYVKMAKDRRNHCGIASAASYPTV
Experimental: as §1

[4] = target: T4, cathepsin B isolated from human liver (Homo sapiens, UniProt P07858); assay: Cathepsin B enzyme inhibition in vitro, kinetic fluorescence assay (selectivity vs calpain); settings: ratio of Ki values; Z-Phe-Arg-AMC substrate, pH 6.0
T4 construct: 0.25 nM cathepsin B—isolated from human liver (Calbiochem #219362); purchased Calbiochem 219362; host or cells: human liver (natural source)
Experimental: as §1

[5] = target: T5, recombinant human cathepsin S (Homo sapiens, UniProt P25774); assay: Cathepsin S enzyme inhibition in vitro, kinetic fluorescence assay (selectivity vs calpain); settings: ratio of Ki values; Z-Val-Val-Arg-AMC substrate, pH 6.0
T5 construct: purchased Calbiochem 219343; host or cells: E. coli
T5 sequence (P25774 115-331): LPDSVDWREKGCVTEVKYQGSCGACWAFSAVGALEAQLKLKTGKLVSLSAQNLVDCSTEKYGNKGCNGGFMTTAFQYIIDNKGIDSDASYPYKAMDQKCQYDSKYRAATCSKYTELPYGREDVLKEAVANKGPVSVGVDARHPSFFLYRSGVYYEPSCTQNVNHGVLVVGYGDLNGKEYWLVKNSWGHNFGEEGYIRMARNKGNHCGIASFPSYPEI
Experimental: as §1

Row | Ki [2] [nM] | SMILES | Sel cat. K (Ki(cathepsin K)/Ki(calpain) ratio) [1] | Sel cat. L (Ki(cathepsin L)/Ki(calpain) ratio) [3] | Sel cat. B (Ki(cathepsin B)/Ki(calpain) ratio) [4] | Sel cat. S (Ki(cathepsin S)/Ki(calpain) ratio) [5]
1 | 100 to 300 | NC(=O)C(=O)C(Cc1ccccc1)NC(=O)c1cccnc1-c1ncc(-c2ccccc2)[nH]1 (stereo not drawn) [Example 2, N-(4-Amino-3,4-dioxo-1-phenylbutan-2-yl)-2-(5-phenyl-1H-imidazol-2-yl)pyridine-3-carboxamide] | + (+ means 10≦Ki(cathepsin K)/Ki(calpain)<30) |  |  | 
2 | 40 to 100 | NC(=O)C(=O)C(Cc1ccccc1)NC(=O)c1cccnc1-c1nc2ccccc2s1 (stereo not drawn) [Example 3, N-(4-Amino-3,4-dioxo-1-phenylbutan-2-yl)-2-(1,3-benzothiazol-2-yl)pyridine-3-carboxamide] | + (+ means 10≦Ki(cathepsin K)/Ki(calpain)<30) | ++ (++ means a Ki(cathepsin L)/Ki(calpain) ratio of ≧50) | + (+ means 10≦Ki(cathepsin B)/Ki(calpain)<30) | ++ (++ means a Ki(cathepsin S)/Ki(calpain) ratio of ≧100)
3 | 40 to 100 | NC(=O)C(=O)C(Cc1ccccc1)NC(=O)c1cccnc1-c1nc(-c2ccc(F)cc2)cs1 (stereo not drawn) [Example 4, N-(4-Amino-3,4-dioxo-1-phenylbutan-2-yl)-2-[4-(4-fluorophenyl)-1,3-thiazol-2-yl]pyridine-3-carboxamide] | + (+ means 10≦Ki(cathepsin K)/Ki(calpain)<30) | ++ (++ means a Ki(cathepsin L)/Ki(calpain) ratio of ≧50) | + (+ means 10≦Ki(cathepsin B)/Ki(calpain)<30) | ++ (++ means a Ki(cathepsin S)/Ki(calpain) ratio of ≧100)
4 | 40 to 100 | NC(=O)C(=O)C(Cc1ccccc1)NC(=O)c1cccnc1-c1csc(-c2ccc(F)cc2)n1 (stereo not drawn) [Example 5, N-(4-Amino-3,4-dioxo-1-phenylbutan-2-yl)-2-[2-(4-fluorophenyl)-1,3-thiazol-4-yl]pyridine-3-carboxamide] |  | + (+ means 30≦Ki(cathepsin L)/Ki(calpain)<50) | + (+ means 10≦Ki(cathepsin B)/Ki(calpain)<30) | ++ (++ means a Ki(cathepsin S)/Ki(calpain) ratio of ≧100)
5 | ≤ 40 | NC(=O)C(=O)C(Cc1ccccc1)NC(=O)c1cccnc1-c1csc(-c2cccc(C(F)(F)F)c2)n1 (stereo not drawn) [Example 6, N-(4-Amino-3,4-dioxo-1-phenylbutan-2-yl)-2-{2-[3-(trifluoromethyl)phenyl]-1,3-thiazol-4-yl}pyridine-3-carboxamide] | + (+ means 10≦Ki(cathepsin K)/Ki(calpain)<30) | ++ (++ means a Ki(cathepsin L)/Ki(calpain) ratio of ≧50) | ++ (++ means a Ki(cathepsin B)/Ki(calpain) ratio of ≧30) | ++ (++ means a Ki(cathepsin S)/Ki(calpain) ratio of ≧100)
6 | ≤ 40 | NC(=O)C(=O)C(Cc1ccccc1)NC(=O)c1cccnc1-c1csc(-c2ccccc2)n1 (stereo not drawn) [Example 7, N-(4-Amino-3,4-dioxo-1-phenylbutan-2-yl)-2-(2-phenyl-1,3-thiazol-4-yl)pyridine-3-carboxamide] | + (+ means 10≦Ki(cathepsin K)/Ki(calpain)<30) | ++ (++ means a Ki(cathepsin L)/Ki(calpain) ratio of ≧50) | ++ (++ means a Ki(cathepsin B)/Ki(calpain) ratio of ≧30) | ++ (++ means a Ki(cathepsin S)/Ki(calpain) ratio of ≧100)
7 | 100 to 300 | NC(=O)C(=O)C(Cc1ccccc1)NC(=O)c1cccnc1-c1nc2ccccc2o1 (stereo not drawn) [Example 16, N-(4-amino-3,4-dioxo-1-phenylbutan-2-yl)-2-(benzo[d]oxazol-2-yl)nicotinamide] | + (+ means 10≦Ki(cathepsin K)/Ki(calpain)<30) |  | + (+ means 10≦Ki(cathepsin B)/Ki(calpain)<30) | ++ (++ means a Ki(cathepsin S)/Ki(calpain) ratio of ≧100)
